In US20060025485A1, “Hydroxybenazamide compounds for treatment of cancer” (priority 2004, published 2006):
Entries after “also recorded” stand apart in the source; their conditions may differ.

Tests used:
[1] = test system: BON pancreatic carcinoid cells; assay: MTT cell proliferation assay, BON cells; type: cell-based, human; details: 100 μM, to day 10, versus DMSO
Description: MTT Cell Proliferation Assay. […] Cells were trypsinized and plated in triplicate to 24 wells plates and allowed to adhere overnight. […] Cells were incubated and maintained with change of treatments at 2 days. Cell growth rates were analyzed after the addition of MTT reagent to the cultured cells following manufacturer's instructions. Absorbance was determined using spectrophotometer at a wave length of 540 nm.

Raf-1/MEK/ERK = assay: Western analysis of Raf-1 pathway activation, BON cells; type: cell-based, human; details: 2 days
Description: H727 and BON cells were plated at 50-60% confluence in 100 mm cell culture dishes and incubated overnight.
(§1) Western blot analysis. Cellular extracts were prepared and quantified by BCA protein assay kit (Pierce, Rockford, Ill.) as previously described (Sippel et al., 2003). 30-50 μg of denatured proteins from each sample underwent electrophoresis on a SDS-polyacrylamide gel and transferred to a nitrocellulose membranes (Schleicher and Schuell, Keene, N.H.). Membranes were blocked for 1 hr in milk solution (1×PBS, 5% non-fat dry milk, 0.05% Tween-20) and then incubated at 4° C. overnight with primary antibodies. The following primary antibody dilutions were used: phospho-ERK 1/2 (1:1,000); phospho-MEK (1:1,000); phospho-Raf-1 (Serine338) (1:1,000); p21 and p18, (1:1,000); (Cell Signal Technology, Beverly, Mass.), Chromogranin A (1:2,000; Zymed Laboratories, San Francisco, Calif.); MASH-1 (1:1000, BD Pharmingen) and G3PDH (1:10,000; Trevigen, Gaithersburg, Md.). After primary antibody incubation, membranes were washed 3×5 min in PBS-T wash buffer (1×PBS, 0.05% Tween 20). Then the membranes were incubated with either 1:2,000 dilution of goat anti-rabbit or goat anti-mouse secondary antibody (Cell Signal Technology, Beverly, Mass.) depending on the source of the primary antibody for 1 hr at room temperature. Membranes were washed 3×5 min in PBS-T wash buffer and developed by Immunstar™ HRP (Bio-Rad Laboratories, Hercules, Calif.) according to the manufacturer's directions. For the detection of hASH1 protein, membranes were developed with SuperSignal West Femto chemiluminescence reagent (Pierce).

Chromogranin A [2] = assay: Western analysis of CgA, BON cells; type: cell-based, human; details: 20 to 100 μM, 2 days
Description: (§2) ZM 336372 treatment. H727 and BON cells were plated at 50-60% confluence in 100 mm cell culture dishes and incubated overnight.
as §1, with “Membranes were washed 3×5 min in PBS-T wash buffer and developed by Immunstar™ HRP (Bio-Rad Laboratories, Hercules, Calif.) according to the manufacturer's directions. For the detection of hASH1 protein, membranes were developed with SuperSignal West Femto chemiluminescence reagent (Pierce).” left out

Chromogranin A [3] = assay: Western analysis of CgA, H727 cells; type: cell-based, human
Description: as §2, §1

hASH1 = assay: Western analysis of hASH1, H727 cells; type: cell-based, human
Description: as §2
as §1, with “Membranes were washed 3×5 min in PBS-T wash buffer and developed by Immunstar™ HRP (Bio-Rad Laboratories, Hercules, Calif.) according to the manufacturer's directions. For the detection of hASH1 protein, membranes were developed with SuperSignal West Femto chemiluminescence reagent (Pierce).” left out

[4] = Drug toxicity assay, propidium iodide exclusion, H727 cells; type: cell-based, human; details: human, 500 μM, 2 days, compared to native H727 cells, read-out: viable cells by PI exclusion
Description: (§3) Drug Toxicity Assay. Briefly, cells were trypsinized and plated in a 6-well plate at 1-2×10^6 in triplicate and allowed to adhere overnight. […] As a control, DMSO was added. After incubation, the media was removed and cells were trypsinized and added to removed media. Cells were incubated on ice and 2.5 μg/ml Propidium Iodide (Sigma, St. Louis, Mo.) was added five minutes before flow cytometry (Ballestrero et al., 2004). Data was acquired using a FACSCalibur benchtop flow cytometer (Becton Dickenson, San Jose, Calif.) using CellQuest acquisition and analysis software.

H727 cells [5] = assay: as above; type: cell-based, human
Description: as §3

HepG2 = HepG2 MTT Assay; type: cell-based; details: HepG2, three concentrations
Description: FIG. 18—HepG2 MTT Assay. The MTT assay is a laboratory test for measuring cellular proliferation (cell growth). MTT is added to a cell culture and is modified into a dye by enzymes associated with metabolic activity in a live cell. MTT is short for 3-(4,5-dimethylthiazol-2-yl)-2,5-diphenyltetrazolium bromide.
(§4) The results were assay using standard MTT, Western blot and cytoxocity assays.

MiaPaCa-2 = MiaPaCa-2 MTT Assay; type: cell-based; details: MiaPaCa-2, three concentrations
pMEK and p-MAPK = assay: Western blot of pMEK and p-MAPK, HepG2 cells; type: cell-based
Description: as §4

p-MAPK [6] = assay: Western blot of p-MAPK, Panc-1 cells; type: cell-based; details: all concentrations tested
Description: as §4

p-MAPK [7] = assay: Western blot of p-MAPK, MiaPaCa-2 cells; type: cell-based; details: all concentrations tested
Description: as §4

H727 cells [8] = test system: H727 cells
Description: Cells tested (H727 and BON) were harvested by trypsinization and plated at a cell density of 3,000 cells/well of each microtiter plate. Cells were grown for 4 hrs at 37° C., with 5% CO2 in a humidified incubator to allow cell attachment to occur before compound addition. […] 10 μl of each compound stock was added to duplicate microtiter plates for each cell line. The final concentration of DMSO in all wells was 1%. To test 200 μM, 2% DMSO was added to each well. Data was compared to the effect of 2% DMSO. All compounds were tested in duplicate. Cells were incubated with the test compounds for 72 hrs before reading the assay. Then processing and calculation were performed according to manufacturer's directions for Cell Titer Glo Assay (Promega, Madison, Wis.).

SMILES: Cc1ccc(NC(=O)c2cccc(N(C)C)c2)cc1NC(=O)c1ccc(O)cc1 [ZM336372, N-[5-(dimethyl-aminobensamido)-2-methylphenyl]-4-hydroxybenzamide]
- BON cell proliferation/metabolism (MTT) [1]: lack of cell metabolism; also recorded: clear suppression of growth; also recorded: growth suppression occurred as early as day 4 and was maintained out to day 10; also recorded: inhibited
- phosphorylated Raf-1 at serine 338 (pRaf-1) (Raf-1/MEK/ERK; 20 μM and 100 μM): dose dependent increases
- phosphorylated ERK 1/2 (pERK, pMAPK) (Raf-1/MEK/ERK; 20 to 100 μM): increased phosphorylation of both MEK and MAPK; also recorded: strong activation of ERK 1/2 and MEK 1/2; also recorded: increasing phosphorylated MEK and MAP kinase; also recorded: dose dependent increases
- phosphorylated MEK 1/2 (pMEK) (Raf-1/MEK/ERK; 20 to 100 μM): increased phosphorylation of both MEK and MAPK; also recorded: strong activation of ERK 1/2 and MEK 1/2; also recorded: increasing phosphorylated MEK and MAP kinase; also recorded: dose dependent increases
- CgA (chromogranin) level (Chromogranin A [2]): decreased secretion of chromogranin; also recorded: reduction in both CgA and hASH1; also recorded: decreasing expression of chromogranin at higher concentrations; also recorded: dose dependent decrease
- CgA level (Chromogranin A [3]; 20 μM and 100 μM, 2 days): reduction in both CgA and hASH1; also recorded: dose dependent decrease
- time of earliest detected reduction of CgA (Chromogranin A [3]; 100 μM, 10 minutes to 48 hours): 1 h
- time of greatest comparative loss of CgA (Chromogranin A [3]; 100 μM, 10 minutes to 48 hours): 48 h
- CgA level over days (Chromogranin A [3]; 100 μM, days 2, 4 and 6): decrease in chromogranin; also recorded: CgA depletion was maintained to 6 days; also recorded: persistent reduction of CgA to day 6
- hASH1 level (hASH1; 20 μM and 100 μM, 2 days): reduction in both CgA and hASH1; also recorded: dose dependent decrease
- time of first recognized reduction of hASH1 (hASH1; 100 μM, 10 minutes to 48 hours): 1 h
- viability at 2 days, 500 µM [4]: 40 to 50%
- cytolysis (H727 cells [5]; 20-100 μM): less than 20%
- viability by PI exclusion (H727 cells [5]; 20 to 100 μM, 2 days, compared to DMSO): significant viability was maintained
- cellular proliferation (MTT) (HepG2): effects at low concentrations; also recorded: reduction in cellular proliferation
- cellular proliferation (MTT) (MiaPaCa-2): inhibition at the highest concentration; also recorded: reduction of cellular proliferation
- p-MAPK level (pMEK and p-MAPK): increase in the levels of both pMEK and p-MAPK
- pMEK level (pMEK and p-MAPK): increase in the levels of both pMEK and p-MAPK
- p-MAPK level (p-MAPK [6]): increase in p-MAPK following treatment at all concentrations tested
- p-MAPK level (p-MAPK [7]): increase in p-MAPK following treatment at all concentrations tested
- IC50 (cytotoxicity) (H727 cells [8]): did not produce enough cellular cytotoxicity to estimate an IC50
